These results are taken from article PMC9656205, “In Vitro/In Vivo Translation of Synergistic Combination of MDM2 and MEK Inhibitors in Melanoma Using PBPK/PD Modelling: Part I” (International Journal of Molecular Sciences, 2022).

The subject of data set [1] is A375 melanoma tumour model. Put plainly: In vivo efficacy, tumour growth inhibition in A375 xenograft. Further details: species or system CD-1 nude mice. Particulars: n = 6. How it is done:
The studied compounds, namely HDM201 and Trametinib, were tested separately and in combination as a therapy against an A375 melanoma tumour model. Tested compounds were administrated in three and six doses per schedule. […] Data from this efficacy study indicate that HDM201 and Trametinib are more efficacious when they are used in combination, compared to their efficacy when administered separately (please refer to maximal tumour growth inhibition (TGI) percentage, presented in Table 7, and compounds efficacy in single and combined administrations, shown in Figure 9).
(§1) Crl:CD-1-Foxn1^nu female mice, 4–5 weeks old, from Charles River Germany, inoculated subcutaneously with A375 cells, were used for in vivo studies. Determination of compound concentrations in plasma and A375 tumour tissue homogenates were performed with the use of quantitative LC-MS/MS system. Plasma and tissue samples were resected at the following timepoints: 1.5, 4, 8, 24 h (n = 3 per timepoint) after oral administration. Pharmacokinetic parameters AUC, Cmax, and Tmax were calculated using MS Excel 2016. Area under the concentration versus time curve was calculated using the linear trapezoidal rule.
Determination of tumour growth was performed after oral gavage of Vehicle (60% PEG 400 (v/v), 10% Cremophor RH40 (v/v), 10% EtOH (v/v) and 20% Labrafil M1944CS (v/v)), Siremadlin, Trametinib or their combination in Vehicle. The volume of the administered formulation (10 mL/kg) of the compounds was always adjusted to the mice body weight.
Tumour volume (V) was recorded with an electronic calliper 2–3 times a week and was calculated based on its length and width, using the prolate ellipsoid equation [46] (Equation (1)):V (mm^3) = d^2 × D/2(1) where d is the tumour width (mm) and D is the tumour length (mm).
Tumour growth inhibition (TGI) value was calculated using Equation (2):TGI (%) = (100 − (T/C × 100))(2) where C is the mean tumour size in control group (mm^3) and T is the mean tumour size in treated group (mm^3).

Data set [2] concerns A375 cells. Further details: method as in PMID 30135191. Conditions: cell count by amount of ATP (CellTiter-Glo assay), read-out: Literature IC50; cited from earlier work.
Data set [3] concerns A375 cells. Put plainly: RealTime-Glo MT cell viability assay, cytotoxicity and drug interaction analysis. The class given is cell-based. Particulars: Homo sapiens, A-375, n = 3; for IC50: A375 cells, 72 h incubation, read-out: RealTime-Glo IC50 ± SD. How it is done: (§2) Inhibition of tumour cell viability after single and combination drug treatment was measured with the use of MTS assay (CellTiter 96® AQueous Non-Radioactive Cell Proliferation Assay) and RealTime-Glo assay (RealTime-Glo™ MT Cell Viability Assay) in A375 cell line using standard manufacturer protocols. […] Drug combinations were tested in the matrix layout with the increasing concentrations of both drugs (please see Figures S1 and S2). […] Several independent assay repetitions were performed for MTS (n = 4) and RealTime-Glo assays (n = 3).
(§3) Drug combination interaction analysis was performed on in vitro cytotoxicity data from MTS and RealTime-Glo assays. […] For Synergyfinder analysis parameters, see Table S4. For a more detailed description of all Synergyfinder functions, please see its documentation and user instructions.

Data set [4] has as its system A375 cells. Description: MTS assay (CellTiter 96 AQueous) cytotoxicity and drug interaction analysis. Format: cell-based. Conditions: Homo sapiens, A-375; for IC50: A375 cells, 72 h incubation, read-out: MTS IC50 ± SD. How it is done:
as §2, §3
Background: Tetrazolium dyes change colour on reduction, which living cells bring about.

Data set [5] deals with A375 cells. Put plainly: Mean of MTS and RealTime-Glo assays (cytotoxicity / drug interaction metrics). Format: cell-based, human. How it is done:
as §2, §3

Data set [6] in a line: Pharmacokinetics in plasma and A375 tumour tissue after single oral administration. Particulars: female, Crl:CD-1-Foxn1nu (CD-1 nude), mouse; for Cmax: n = 3; for AUC(0-t): n = 3, read-out: AUC0–24h ± SD. The class given is in vivo, CD-1 nude mice. How it is done:
Pharmacokinetic profiles were determined after single oral administration of HDM201 (100 mg/kg) and Trametinib (1 mg/kg) in vehicle formulation in CD-1 nude mice. Initial analysis of compound concentrations included plasma and A375 tumour tissue homogenates.
as §1

The test system of data set [7] is A375 cells. Also noted: method as in PMID 22169769. Particulars: cell count by DAPI nuclei staining, read-out: Literature IC50; cited from earlier work.
Setting [8] is: A375 tumour tissue homogenate, 100 mg/kg, HDM201 100 mg/kg single oral, without Trametinib, A375 tumour.
Where [9] appears, read: A375 tumour tissue homogenate, HDM201 100 mg/kg single oral, with Trametinib 1 mg/kg, A375 tumour.
Setting [10] is: plasma, 100 mg/kg, HDM201 100 mg/kg single oral, without Trametinib, plasma.
Setting [11] is: plasma, HDM201 100 mg/kg single oral, with Trametinib 1 mg/kg, plasma.
[12] abbreviates: plasma, range stated jointly for HDM201 and Trametinib, oral, mice, sparse sampling, read-out: typical Tmax.
The mark [13] stands for this setting: A375 tumour tissue homogenate, 1 mg/kg, Trametinib 1 mg/kg single oral, with HDM201 100 mg/kg, A375 tumour.
Setting [14] is: A375 tumour tissue homogenate, 1 mg/kg, Trametinib 1 mg/kg single oral, without HDM201, A375 tumour.
The mark [15] stands for this setting: plasma, 1 mg/kg, Trametinib 1 mg/kg single oral, with HDM201 100 mg/kg, plasma.
Where [16] appears, read: plasma, 1 mg/kg, Trametinib 1 mg/kg single oral, without HDM201, plasma.

Read-outs that look alike come from different tables or passages of the source.

Take `COc1ncc(-c2nc3c(n2C(C)C)[C@H](c2ccc(Cl)cc2)N(c2cc(Cl)cn(C)c2=O)C3=O)c(OC)n1` [Siremadlin (HDM201), Siremadlin]: the “Max TGI (%) ± SEM” value in data set [1] (HDM201 40 mg/kg qdx3, oral) was 33.39 ± 13.90%; in data set [1] (HDM201 100 mg/kg qdx3, oral) it was 76.94 ± 5.38%. The IC50 in data set [2] is 0.764 µM; in data set [3], 0.26 ± 0.171 µM; in data set [4] (n = 4) it was 0.0657 ± 0.0047 µM. Moreover, the viability at 4 µM in data set [3] (RealTime-Glo, max concentration 4000 nM, last observation after 80h, read-out: % of viability at the last measurement ± SD) came out at 21 ± 6.86%. The viability at 0.2 µM in data set [4] (MTS, max concentration 200 nM, last observation after 72h, n = 4 (resistant population estimate), read-out: % of viability at the last measurement ± SD) is 21.9 ± 5.92%. For the same compound, the “% of viability at the last measurement ± SD” value in data set [5] (Siremadlin) amounted to 21.445 ± 6.389%. Besides, the Cmax in data set [6] (setting [8]) turned out to be 16.2 µM; in data set [6] (setting [9]) it was 28.6 µM; in data set [6] (setting [10]), 9.78 ± 2.98 µM; in data set [6] (setting [11]) it was 14.6 µM. Besides, the AUC(0-t) in data set [6] (setting [8]) stood at 179 µM·h; in data set [6] (setting [9]) it was 219 µM·h; in data set [6] (setting [10]), 95.1 µM·h; in data set [6] (setting [11]) it was 108 µM·h. For the same compound, the Tmax in data set [6] (A375 tumour tissue homogenate, 100 mg/kg, HDM201 100 mg/kg single oral, without Trametinib, A375 tumour, n = 3, read-out: Tmax ± SD) was 1.5 ± 1.44 h; in data set [6] (A375 tumour tissue homogenate, HDM201 100 mg/kg single oral, with Trametinib 1 mg/kg, A375 tumour, n = 3, read-out: Tmax ± SD), 1.5 ± 1.44 h; in data set [6] (plasma, 100 mg/kg, HDM201 100 mg/kg single oral, without Trametinib, plasma, n = 3, read-out: Tmax ± SD), 1.5 ± 1.44 h; in data set [6] (plasma, HDM201 100 mg/kg single oral, with Trametinib 1 mg/kg, plasma, n = 3, read-out: Tmax ± SD), 1.5 ± 1.44 h; in data set [6] (setting [12]), 1.5 to 4 h.
Consider `CC(=O)Nc1cccc(-n2c(=O)n(C3CC3)c(=O)c3c(Nc4ccc(I)cc4F)n(C)c(=O)c(C)c32)c1` [Trametinib], for which the “Max TGI (%) ± SEM” value came to 65.47 ± 21.29% in data set [1] (Trametinib 0.3 mg/kg qdx6, oral) and 90.05 ± 1.13% in data set [1] (Trametinib 1 mg/kg qdx6, oral). The results for the IC50 in data set [3], in data set [4] (n = 4) and in data set [7] were 0.0008 ± 0.0004 µM, 0.00058 ± 3e-05 µM and 0.001 µM, respectively. For the same compound, the viability at 0.04 µM in data set [3] (RealTime-Glo, max concentration 40 nM, last observation after 80h, read-out: % of viability at the last measurement ± SD) was 14.9 ± 2.59%. Besides, the viability at 0.004 µM in data set [4] (MTS, max concentration 4 nM, last observation after 72h, n = 4, read-out: % of viability at the last measurement ± SD) was 13.3 ± 2.6%. For the same compound, in data set [5] (Trametinib), the “% of viability at the last measurement ± SD” value is 14.097 ± 2.594%. In addition, the Cmax in data set [6] (setting [13]) amounted to 0.715 ± 0.197 µM; in data set [6] (setting [14]), 0.587 ± 0.0663 µM; in data set [6] (setting [15]), 0.354 ± 0.106 µM; in data set [6] (setting [16]), 0.567 ± 0.0494 µM. The AUC(0-t) in data set [6] (setting [13]) came out at 9.66 ± 1.39 µM·h; in data set [6] (setting [14]), 9.13 ± 1.3 µM·h; in data set [6] (setting [15]) it was 4.48 ± 1.17 µM·h; in data set [6] (setting [16]), 5.58 ± 0.567 µM·h. Besides, the Tmax in data set [6] (A375 tumour tissue homogenate, 1 mg/kg, Trametinib 1 mg/kg single oral, with HDM201 100 mg/kg, A375 tumour, n = 3, read-out: Tmax ± SD) was 4 h; in data set [6] (A375 tumour tissue homogenate, 1 mg/kg, Trametinib 1 mg/kg single oral, without HDM201, A375 tumour, n = 3, read-out: Tmax ± SD), 4 h; in data set [6] (plasma, 1 mg/kg, Trametinib 1 mg/kg single oral, with HDM201 100 mg/kg, plasma, n = 3, read-out: Tmax ± SD) it was 4 ± 1.44 h; in data set [6] (plasma, 1 mg/kg, Trametinib 1 mg/kg single oral, without HDM201, plasma, n = 3, read-out: Tmax ± SD) it was 4 ± 1.44 h; in data set [6] (setting [12]), 1.5 to 4 h.

The term IC50 denotes the concentration that gives 50% inhibition. What is called viability is a read-out of living cells in per cent, often relative to untreated cells. Broadly, the Cmax is the highest concentration seen after dosing. As a reminder, the Tmax is the time at which the peak concentration occurs.
